Earlier results in US20240398903A1, “COMPOSITION AND METHODS OF TREATMENT USING […] - ENHANCED SUPPLEMENTATION” (Xygenyx Inc., priority 2023, published 2024).

Columns and labels:
skin [1] = details: penetration enhancer for transdermal drugs
[2] = mice
[3] = as compared to α-tocopherol (factor 1.0)
skin [4] = details: topical, concentrations 0.5-5%
[5] = even when dietary intake occurs in equal portions
[6] = in vivo
[7] = in vivo; remark: listed apart in the source
[8] = tested on: wide dynamic range neurons in the ventroposterolateral nucleus of the thalamus; details: in vivo

CC12CCC(CC1)C(C)(C)O2 [eucalyptol, 1,8-epoxy-p-menthane]
increase of drug uptake via the transdermal route (factor) (skin [1]): more than 10

CC(CN)C(=O)O [L-BAIBA, L-beta-aminoisobutyric acid]
tolerated dose [2]: 10-100 mg/kg of bodyweight

Cc1c(C)c2c(c(C)c1O)CC[C@@](C)(CCC[C@H](C)CCC[C@H](C)CCCC(C)C)O2 [α-tocopherol]
reducing the risk of coronary disease (dietary supplementation, doses up to 400 IU/day): up to 34% | reduce the risk of developing neurodegenerative diseases such as Alzheimer's Syndrome or dementia (dietary supplementation, doses up to 400 IU/day, controlled trials): ≤ 24% | reduction in the development of age-related cataracts (in combination with 10-20 mg β-carotene and 400-500 mg vitamin C): 23% | relative biological activity [3]: 1.0

Cc1cc(O)c(C)c2c1O[C@](C)(CCC[C@H](C)CCC[C@H](C)CCCC(C)C)CC2 [β-tocopherol]
relative biological activity [3]: 0.5

C=CCCCCCCCCC(=O)N[C@@H](Cc1ccccc1)C(=O)O [UP, Undecylenoyl phenylalanine]
time of treatment to skin lightening effects (skin [4]): ≥ 7 days

CC(C)[C@@H]1CC[C@@H](C)C[C@H]1O [Menthol]
increase of drug uptake via the transdermal route (factor) (skin [1]): ≥ 10

Cc1cc(O)cc2c1O[C@](C)(CCC[C@H](C)CCC[C@H](C)CCCC(C)C)CC2 [δ-tocopherol]
relative biological activity [3]: 0.03

Cc1c(O)cc2c(c1C)O[C@](C)(CCC[C@H](C)CCC[C@H](C)CCCC(C)C)CC2 [γ-tocopherol]
relative biological activity [3]: 0.1 | concentration in vivo relative to α-tocopherol [5]: roughly 10%

CCNC(=O)CC[C@H](N)C(=O)O [Theanine]
dose considered safe and well-tolerated [6]: up to 400 mg per day

HGH: hormone comprising a peptide chain that is synthesized in the pituitary gland
biological half-life [7]: 10-20 minutes

CCCCCc1cc(O)c2c(c1)OC(C)(C)C1CCC(C)=CC21 (stereo not drawn) [THC, Δ-9-tetrahydrocannabinol]
power in mediating pain relative to morphine [8]: ten times more powerful than morphine
